Measurements taken from patent publication US12570661B2, “Isoform-specific aldehyde dehydrogenase inhibitors” (The Board of Trustees of the Leland Stanford Junior …, priority 2020, dated 2026).
“Also recorded” adds a separate entry of the source. Read-outs that look alike come from different tables or passages of the source.

What was measured:
ALDH1B1 = target: T1, ALDH1B1 (Homo sapiens, UniProt P30837); assay: ALDH1B1 enzyme kinetics assay (NADH fluorescence, acetaldehyde substrate); format: biochemical; design: made in house; host or cells: E. coli BL21 (optionally co-expressed with GroEL/GroES); conditions: for ALDH1B1 inhibition / isoform selectivity (in words): enzyme kinetics assays against ALDH isoforms
T1 sequence (P30837 18-517): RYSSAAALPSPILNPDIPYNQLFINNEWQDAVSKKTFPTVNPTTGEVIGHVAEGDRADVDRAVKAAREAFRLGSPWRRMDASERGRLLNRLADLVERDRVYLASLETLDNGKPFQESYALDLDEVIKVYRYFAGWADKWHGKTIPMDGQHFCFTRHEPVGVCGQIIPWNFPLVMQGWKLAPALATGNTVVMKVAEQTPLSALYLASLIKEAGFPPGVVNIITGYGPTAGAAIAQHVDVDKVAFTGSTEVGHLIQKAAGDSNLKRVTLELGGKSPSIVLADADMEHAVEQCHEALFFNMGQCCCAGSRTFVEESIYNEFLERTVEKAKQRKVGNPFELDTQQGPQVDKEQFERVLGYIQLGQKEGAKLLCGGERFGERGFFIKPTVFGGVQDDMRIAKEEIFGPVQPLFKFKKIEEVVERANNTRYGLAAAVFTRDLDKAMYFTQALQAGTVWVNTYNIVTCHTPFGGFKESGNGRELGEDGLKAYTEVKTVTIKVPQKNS
Method: Cloning, expression, and purification of human recombinant ALDH1A1, ALDH1A3, ALDH2, ALDH3A1, ALDH3A2, ALDH4A1, ALDH5A1 and ALDH7A1 isozymes were conducted as described previously (Chen, C. H. et al. (2015) Proc. Natl. Acad. Sci. U.S.A. 112, 3074-3079). Human ALDH1A2 (Origene, SC109995) and ALDH1B1 (T. Hurley, Indiana University) plasmids were cloned into the pET-15b expression vector (Novagen, 69661-3) containing an N-terminal hexahistidine tag. The mitochondria-targeting sequence of ALDH1B1 was also removed. For protein expression without chaperones, the pET-15b based plasmids were transformed into competent BL21 E. coli cells, which were subsequently grown in 1 L of Luria-Bertani medium containing 100 μg/mL ampicillin at 37° C. Once the OD600 value reached 0.6, the culture was transferred to 16° C. and 0.5 mM isopropyl β-d-1-thiogalactopyranoside was introduced to induce protein expression overnight. The bacteria were then pelleted by centrifugation (3000×g, 4° C. for 30 rain) and harvested. 40 mL BugBuster Master Mix buffer (MilliporeSigrna) containing a protease inhibitor cocktail (cOmplete; Roche) was added, and the cells were lysed by mechanically rolling the suspension at room temperature for 25 min. The lysate was centrifuged (16000×g, 4° C. for 30 min), and the soluble fraction was collected and mixed with 2 mL of Ni-NTA Superflow resin (Qiagen). After the mixture was avowed to rock at 4° C. for 1 h, it was used to create a 10-mL gravity column, which was sequentially treated with 40 mL of wash buffer 1 (20 mM sodium phosphate, 500 mM NaCl, 1 mM DTT, 20 mM imidazole, 5% glycerol, pH 7.4) and 25 mL of wash buffer 2 (20 mM sodium phosphate, 500 mM NaCl, 1 mM DTT, 40 mM imidazole, 5% glycerol, pH 7.4). The hexahistidine-tagged protein was then recovered by treated the column with 5 mL elution buffer (20 mM sodium phosphate, 500 mM NaCl, 1 mM DTT, 400 mM imidazole, 5% glycerol, pH 7.4) and collecting 500-μL fractions. The protein concentration for each fraction was measured (500 μL elution volume was collected as one fraction and was immediately mixed with 500 μL glycerol. The protein concentration for each fraction was measured (600 nm Protein Assay Reagent; Thermo Fisher Scientific), and protein-containing fractions were diluted with an equal volume of glycerol and stored at −80° C. Samples from each step were also collected for SDS-PAGE gel analysis. For ALDH1B1 protein co-expression with chaperones, pET-15b-ALDH1B1 and GroEL/GroES (Addgene, plasmid pBB541) plasmids were co-transformed into competent BL21 E. coli cells, which were subsequently grown in 1 L of Luria-Bertani medium containing 100 μg/mL ampicillin and 50 μg/mL spectinomycin at 37° C. The hexahistidine-tagged ALDH1B1 protein was then expressed and purified as described above.
To evaluate compound activities against ALDH isoforms, reaction mixtures consisting of enzyme assay buffer (100 mM sodium phosphate, 1 mM MgCl2, pH 8.0) and 0.1% DMSO, 1 mM β-mercaptoethanol, 1 mM NAD^+, and the bacterially expressed protein were prepared in white opaque 96-well assay plates (100 μL/well, flat-bottom and non-treated; Corning Costar). 5 μg/mL ALDH enzyme was used for single-dose (1, 10, 50 μM) compound test, and 1 μg/mL ALDH enzyme was used for IC50s determination. Acetaldehyde was then added to each well to achieve an initial substrate concentration of 1 mM, and the resulting enzymatic activity was measured based on NADH fluorescence. The fluorescence signal was read over the course of 10 min on a SpectraMax M2e microplate reader (340-nm excitation and 460-nm emission; Molecular Devices) operated by SoftMax Pro software. Compound activities were normalized to a DMSO control, and dose-response inhibition curves were fitted with four-parameter non-linear regression using Prism software. […]

NIH-3T3 cells = assay: Seahorse oxygen-consumption-rate assay (NIH3T3); format: cell-based, murine; conditions: Mus musculus
SW480 cells = assay: Seahorse oxygen-consumption-rate assay (SW480); format: cell-based; conditions: Homo sapiens
Method: SW480 cells were seeded into a XF96 microplate (Agilent) at a density of 2×10^4 cells/well and cultured for 24 h. The cells were then incubated for 1 h at 37° C. in a non-CO2 incubator, and the plate was then loaded into a 96-well Seahorse XF analyzer (Agilent) and sequentially injected with the indicated compounds, 1 μM oligomycin A, 1 μM FCCP, or 0.5 μM rotenone/antimycin according to the Agilent Mito Stress protocol. The oxygen consumption rates (OCRs, pmol/min) for each well were measured every 5 min for a 15-min period. Basal OCR values was normalized as 100% for data analyses.

[1] = 1 μg/mL enzyme, 1 mM acetaldehyde, 1 mM NAD+, read-out: ALDH1B1(in vitro) IC50

SMILES	ALDH1B1 inhibition / isoform selectivity (in words) (ALDH1B1)	IC50 (ALDH1B1; [1])	IC50 (NIH-3T3 cells)	IC50 (SW480 cells)	IC50 (ALDH1B1; FIG. 2, panel B, read-out: ALDH1B1 IC50 (dose-response experiments, text))	activity against other ALDH1 enzymes relative to ALDH1B1 (ALDH1B1; dose-response, ALDH1A1, ALDH1A3, ALDH1B1)	mode of ALDH1B1 inhibition with respect to NAD+ (ALDH1B1; varying NAD+, Lineweaver-Burk)	mode of ALDH1B1 inhibition with respect to acetaldehyde (ALDH1B1; varying acetaldehyde, Lineweaver-Burk)	potency against ALDH1B1 relative to imidazolium 2 (and 8) (ALDH1B1; dose-response, FIG. 15 panel d)
COc1ccccc1-n1cc(-c2ccccn2)[n+]2c1CCCCC2 [Compound 63]	inactive against ALDH1B1								
COc1ccccc1C1=CN(c2ccc(-c3ccccc3)cc2)C2=NCCCCN12 [HPI-273]		47 nM	190 nM						
COc1ccccc1-n1cc(-c2ccc(-c3ccccc3)cc2)[n+]2c1CCCCC2 [Imidazolium 2]	most potent	42 nM	180 nM	540 nM	57 nM	over an order of magnitude weaker activity against other ALDH1 enzymes	uncompetitive	non-competitive	
COc1ccccc1-c1ccc(-c2cn(-c3ccccc3OC)c3[n+]2CCCCC3)cc1.[Br-] [Imidazolium 8]	ALDH1B1-specific inhibitors; also recorded: enhanced specificity for ALDH1B1 in comparison to imidazolium 2	47 nM	130 nM	340 nM					comparable potencies
COc1ccccc1C1=CN(c2ccc(-c3ccccc3)cc2)C2=NCCCN12 [STL5-T-0002]		120 nM	850 nM						
